Where “and” joins values, the source holds several entries; their conditions need not be identical. Equal values may be shown once.
How the values were obtained:
[1] = molar heat capacity at constant volume; settings: High-temperature High-pressure adiabatci calorimeter
[2] = for thermal pressure coefficient: barogram technique

CCOCC [diethyl ether]
Settings	Critical density, [2] [kg/m3]	Critical temperature, [2] [K]	molar heat capacity at constant volume, [1]	thermal pressure coefficient, [2]	vapor or sublimation pressure, [2]
416.1 K, Liquid	–	–	156.77 J/K/mol	272 kPa/K	1599 kPa
425.19 K, Liquid	–	–	159.36 J/K/mol	238 kPa/K	1906 kPa
437.14 K, Liquid	–	–	163.81 J/K/mol	198 kPa/K	2280 kPa
450.6 K, Liquid	–	–	170.26 J/K/mol	148 kPa/K	2931 kPa
450.77 K, Liquid	–	–	171.96 J/K/mol	148 kPa/K	2933 kPa
459.61 K, Liquid	–	–	178.63 J/K/mol	106 kPa/K	3315 kPa
464.79 K, Liquid	–	–	190.49 J/K/mol	81.8 kPa/K	3580 kPa
466.12 K, Gas	–	–	190.12 J/K/mol	52.3 kPa/K	–
466.47 K, Liquid	–	–	203.83 J/K/mol	68 kPa/K	3612 kPa
466.66 K, Gas	–	–	208.5 J/K/mol	54.3 kPa/K	–
466.75 K, Liquid	–	–	210.65 J/K/mol	64.5 kPa/K	3601 kPa
466.8 K, Liquid	–	–	218.66 J/K/mol	61 kPa/K	3583 kPa
466.81 K, Liquid	–	–	233.48 J/K/mol and 245.64 J/K/mol	59.7 kPa/K and 59.2 kPa/K	3608 kPa and 3576 kPa
466.82 K, Gas	–	–	234.97 J/K/mol	55.9 kPa/K	–
466.83 K, Gas	–	–	248.6 J/K/mol	56.1 kPa/K	–
466.85 K, Gas	–	–	264.24 J/K/mol	55.9 kPa/K	–
Liquid, quasi-satatic thermogram technique	265.1	–	–	–	–
Liquid, quasi-static thermogram technique	–	466.85	–	–	–

[2]
Settings	mass density
416.1 K, Liquid, Constant volume piezo-calorimeter	534.6 kg/m3
425.19 K, Liquid, Constant volume piezo-calorimeter	517.3 kg/m3
437.14 K, Liquid, Constant volume piezo-calorimeter	485.2 kg/m3
450.6 K, Liquid, Constant volume piezo-calorimeter	441.5 kg/m3
450.77 K, Liquid, Constant volume piezo-calorimeter	440.8 kg/m3
459.61 K, Liquid, Constant volume piezo-calorimeter	394.8 kg/m3
464.79 K, Liquid, Constant volume piezo-calorimeter	348.2 kg/m3
466.12 K, Gas, constant volume piezo-calorimeter	212.6 kg/m3
466.47 K, Liquid, Constant volume piezo-calorimeter	310.8 kg/m3
466.66 K, Gas, constant volume piezo-calorimeter	233.7 kg/m3
466.75 K, Liquid, Constant volume piezo-calorimeter	296.7 kg/m3
466.8 K, Liquid, Constant volume piezo-calorimeter	288.3 kg/m3
466.81 K, Liquid, Constant volume piezo-calorimeter	278.7 kg/m3 and 275.7 kg/m3
466.82 K, Gas, constant volume piezo-calorimeter	255 kg/m3
466.83 K, Gas, constant volume piezo-calorimeter	260.7 kg/m3
466.85 K, Gas, constant volume piezo-calorimeter	261.2 kg/m3

— the NIST ThermoML archive (doi:10.1007/s10765-011-0948-4)
